Assay results from patent publication US12364674B2, “Compounds and combinations thereof for treating neurological and psychiatric conditions” (priority 2022, dated 2025).
Structures can show the parent of a compound that is named as a salt. Where two headings read alike, the source gives them in different places.

Columns and labels:
[1] = Example 3: co-administration of paroxetine and the subject combination in healthy volunteers
Excerpt: Co-administration of the SSRI paroxetine and the subject combination was studied in 29 healthy volunteers.

[2] = Steady-state pharmacokinetics of dextromethorphan, bupropion and metabolites after administration of the subject combination; details: for changes in AUC and Cmax with dose (dose proportionality): steady state, co-administered with bupropion
[3] = Example 4: exposure to the 45 mg dextromethorphan hydrobromide/105 mg bupropion hydrochloride tablet in moderate renal impairment (FIG. 1); details: 8 days of twice daily dosing of the tablet
[4] = Example 1: subject combination in subjects with moderate renal impairment vs matched controls; details: moderate renal impairment (GFR 30-60 mL/min)
[5] = Example 2: pharmacokinetics of the subject combination in CYP2D6 poor metabolizers; details: 3 CYP2D6 poor metabolizers
Excerpt: Approximately 7 to 10% of Caucasians and 3 to 8% of African Americans lack the capacity to metabolize CYP2D6 substrates and are classified as poor metabolizers.

[6] = human, in vivo
[7] = human, in vivo; remark: listed apart in the source

Fc1ccc([C@@H]2CCNC[C@H]2COc2ccc3c(c2)OCO3)cc1 [paroxetine]
increase of overall exposure of paroxetine when co-administered with the subject combination ([1]; human, in vivo): 1.2 fold

COc1ccc2c(c1)[C@]13CCCC[C@@H]1[C@H](C2)N(C)CC3 [dextromethorphan, morphinan, 3-methoxy-17-methyl-, (9α, 13α, 14α), hydrobromide monohydrate]
increase of mean elimination half-life compared to dextromethorphan given without bupropion ([2]; 8 days of administration of the subject combination, extensive metabolizers): approximately 3 fold
changes in AUC and Cmax with dose (dose proportionality) ([2]; varying doses of bupropion (75 to 150 mg)): less than dose-proportional
changes in AUC and Cmax with dose (dose proportionality) ([2]; varying doses of dextromethorphan (30 to 60 mg)): greater than dose-proportional
mean elimination half-life ([2]; subject combination): 22 h
increase in AUC0-12 (GMR vs matched healthy subjects) [3]: 2.21 fold
increase in Cmax (GMR vs matched healthy subjects) [3]: 2.10 fold
reduction of clearance vs matched controls with normal renal function [4]: 50%
increase of exposure vs matched controls with normal renal function ([4]; 7 subjects vs 6 controls): approximately 2 fold
increase in AUC0-12 compared to extensive metabolizers [5]: ~3.4 fold
increase in Cmax compared to extensive metabolizers [5]: ~3 fold
change of overall exposure on co-administration of paroxetine ([1]; 29 healthy volunteers, paroxetine with the subject combination): 2.5 fold

CC(NC(C)(C)C)C(=O)c1cccc(Cl)c1.Cl (racemic) [bupropion, (±)-1-(3-chlorophenyl)-2-[(1,1-dimethylethyl)amino]-1-propanone hydrochloride]
increase of exposure vs matched controls with normal renal function [6]: approximately 2 fold
reduction of clearance vs matched controls with normal renal function [6]: 50%
increase in AUC0-12 (GMR vs matched healthy subjects) [7]: 1.80 fold
increase in Cmax (GMR vs matched healthy subjects) [7]: 1.87 fold
